Results reported in patent publication US20240101552A1, “CARBONYL HETEROCYCLIC COMPOUND AND APPLICATION THEREOF” (SHANGHAI PHARMACEUTICALS HOLDING CO., LTD., priority 2020, published 2024).

Biological target: LANCL2 (Homo sapiens (Human), UniProt Q9NS86)
Test: SPR (BIACORE S200) kinetic determination of LANCL2-small molecule interactions
Type: binding
Settings: for Kd: immobilized LANCL2, 1:1 binding model, pH 6.5, 25° C.; for Rmax (RU): maximum binding force
Method: 1.1 Reagent Materials • Ligand: LANCL2 • Running buffer: 20 mM MES, 150 mM NaCl, 0.05% P20, pH 6.5, 1% DMSO
Injection conditions for small molecule compounds: a flow rate of 30 μL/min, a binding time of 60 s, a dissociation time of 300 s.
Running buffer: 20 mM MES, 150 mM NaCl, 0.05% P20, pH 6.5, 1% DMSO.
Sample chamber temperature: 25° C.; analysis temperature: 25° C.
Kinetic determination of LANCL2-small molecule interactions was performed. The kinetic parameters of small molecules BT-11 and L-1 to 60 (analytes) binding to LANCL2 (ligand) were determined using BIACORE S200. Data were generated in triplicate in a dose-dependent manner (5-8 titration points) and analyzed to determine binding models (Langmuir, conformational shifts, etc.), real-time association and dissociation constants, and equilibrium dissociation constants. SPR technology allows the validation of specific LANCL2-phytochemical interactions as well as an increased insight into the gold standard of binding mechanisms and rates. Experiments were performed on carboxymethyl polydextrose (CM5) sensor chips by amine-coupled covalent attachment of LANCL2. Data were analyzed with BIACORE S200T200 evaluation software (version 1), so as to determine affinity binding constants (KD) using a 1:1 binding model.
An optical technique for detecting molecular interactions, SPR, was used to measure the binding affinity between LANCL2 and a ligand thereof (compound to be tested). Purified recombinant LANCL2 protein was immobilized on a BIACORE sensor chip and small molecules were injected onto the protein surface using an equipment of microfluidic system. The change in total mass on the chip surface, corresponding to a small binding to the protein, was measured. […] The equilibrium dissociation constant (Kd) was often used to describe the affinity between a ligand and a protein, such as affinity degree of a ligand binding to a specific protein. Ligand-protein affinity was affected by non-covalent intermolecular interactions between two molecules, such as hydrogen bonding, electrostatic interactions, hydrophobic bonds and van der Waals forces. The steady-state affinity (Kd) for each interaction could be measured by plotting equilibrium binding levels against compound concentrations.

LANCL2, sequence (Q9NS86 whole entry, species assumed): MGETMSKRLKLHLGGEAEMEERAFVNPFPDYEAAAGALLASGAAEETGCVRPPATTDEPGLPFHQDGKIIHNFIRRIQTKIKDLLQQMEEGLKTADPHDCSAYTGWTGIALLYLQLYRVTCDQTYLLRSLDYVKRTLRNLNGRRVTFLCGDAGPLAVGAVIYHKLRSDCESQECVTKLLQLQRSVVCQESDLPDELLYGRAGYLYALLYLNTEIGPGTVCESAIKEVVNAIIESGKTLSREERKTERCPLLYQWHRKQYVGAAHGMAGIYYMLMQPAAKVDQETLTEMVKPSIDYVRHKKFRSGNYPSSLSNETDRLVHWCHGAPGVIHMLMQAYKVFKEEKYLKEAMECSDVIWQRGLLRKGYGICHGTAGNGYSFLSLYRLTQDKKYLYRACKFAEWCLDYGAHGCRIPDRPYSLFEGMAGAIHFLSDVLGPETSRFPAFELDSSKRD

Row | Structure (SMILES) | Kd [µM] | Rmax (RU) | binding activity compared with positive reference compound BT-11
1 | O=C(c1cccc(-c2cn3ccccc3n2)c1)N1CCC2(CC1)CCN(C(=O)c1cccc(Nc3ccccc3)n1)CC2 [Embodiment L-72, (9-(3-(imidazo[1,2-a]pyridin-2-yl)benzoyl)-3,9-diazaspiro[5.5]undecan-3-yl)(6-(phenylamino)pyridin-2-yl)methanone] | 6.93 | 5.3 | –
2 | O=C(c1cccc(-c2cn3ccccc3n2)c1)N1CCC2(CC1)CCN(C(=O)c1cccc(-c3cn4ccccc4n3)c1)CC2 [Embodiment L-73, (3,9-diazaspiro[5.5]undecane-3,9-diyl)bis((3-(imidazo[1,2-a]pyridin-2-yl)phenyl)methanone)] | 8.73 | 4.5 | –
3 | O=C(c1cccc(-c2cn3ccccc3n2)c1)N1CC2CN(C(=O)c3cccc(-c4cn5ccccc5n4)c3)CC2C1 [Embodiment L-74, (tetrahydropyrrolo[3,4-c]pyrrole-2,5(1H,3H)-diyl)bis((3-(imidazo[1,2-a]pyridin-2-yl)phenyl)methanone)] | 25.8 | 0.102 | –
4 | O=C(NC1C2CN(C(=O)c3cccc(-c4nc5ccccc5s4)c3)CC21)c1cccc(-c2nc3ccccc3[nH]2)n1 [Embodiment L-77, 6-(1H-benzo[d]imidazol-2-yl)-N-(3-(3-(benzo[d]thiazol-2-yl)benzoyl)-3-azabicyclo[3.1.0]hexane-6-yl)picolinamide] | 1.9 | 7.3 | better binding activities than the positive reference compound BT-11
5 | O=C(c1ccnc(Nc2ccccc2)n1)N1CCC2(CC1)CCN(C(=O)c1ccnc(Nc3ccccc3)n1)CC2 [Embodiment L-78, (3,9-diazaspiro[5.5]undecane-3,9-diyl)bis((2-(phenylamino)pyrimidin-4-yl)methanone)] | 81.5 | 14.4 | –
6 | O=C(NC1CCN(C(=O)c2ccnc(Nc3ccccc3)n2)CC1)c1ccnc(Nc2ccccc2)n1 [Embodiment L-79] | 24.8 | 13 | –
7 | O=C(c1cccc(Nc2ccccc2)n1)N1CCC2(CC1)CCN(C(=O)c1ccnc(Nc3ccccc3)n1)CC2 [Embodiment L-80, (9-(6-(phenylamino)picolinoyl)-3,9-diazaspiro[5.5]undecan-3-yl)(2-(phenylamino)pyrimidin-4-yl)methanone] | 28.4 | 8.5 | –
8 | O=C(NC1CCN(C(=O)c2ccnc(Nc3ccccc3)n2)CC1)c1cccc(Nc2ccccc2)n1 [Embodiment L-81, 6-(phenylamino)-N-(1-(2-(phenylamino)pyrimidine-4-carbonyl)piperidin-4-yl)picolinamide] | 23 | 10.5 | –
9 | O=C(c1cccc(-c2nc3ccccc3[nH]2)n1)N1CC2CN(C(=O)c3ccnc(Nc4ccc(F)cc4)n3)CC2C1 [Embodiment L-82] | 42.3 | 9.4 | –
10 | O=C(c1ccnc(Nc2ccccc2)n1)N1CC2CN(C(=O)c3ccnc(Nc4ccccc4)n3)CC2C1 [Embodiment L-83] | 53.7 | 9.6 | –
11 | O=C(NC1CCN(C(=O)c2cccc(-c3cn4ccccc4n3)c2)CC1)c1cccc(-c2cn3ccccc3n2)c1 [Embodiment L-88, 3-(imidazo[1,2-a]pyridin-2-yl)-N-(1-(3-(imidazo[1,2-a]pyridin-2-yl)benzoyl)piperidin-4-yl)benzamide] | 16.4 | 9.7 | –
12 | Cc1ccc(C(=O)N2CC3C(C2)C3NC(=O)c2cccc(-c3nc4ccccc4[nH]3)n2)cc1NC1=CC(=O)c2ccccc2C1=O [Embodiment L-91] | 1.71 | 5.2 | –
13 | Cc1cn(-c2cccc(C(=O)N3CCC4(CCN(C(=O)c5cccc(-c6cn7ccccc7n6)c5)CC4)CC3)c2)cn1 [Embodiment L-92, (9-(3-(imidazo[1,2-a]pyridin-2-yl)benzoyl)-3,9-diazaspiro[5.5]undecan-3-yl)(3-(4-methyl-1H-imidazol-1-yl)phenyl)methanone] | 58.8 | 11 | –
14 | Cc1cn(-c2cccc(C(=O)N3CC4C(C3)C4NC(=O)c3cccc(-c4nc5ccccc5[nH]4)n3)c2)cn1 [Embodiment L-93, 6-(1H-benzo[d]imidazol-2-yl)-N-(3-(3-(4-methyl-1H-imidazol-1-yl)benzoyl)-3-azabicyclo[3.1.0]hexane-6-yl)picolinamide] | 5.84 | 8 | –
15 | Cc1ccc(C(=O)N2CCC3(CCN(C(=O)c4cccc(-c5cn6ccccc6n5)c4)CC3)CC2)cc1NC1=CC(=O)c2ccccc2C1=O [Embodiment L-95, 2-((5-(9-(3-(imidazo[1,2-a]pyridin-2-yl)benzoyl)-3,9-diazaspiro[5.5]undecane-3-carbonyl)-2-methylphenyl)amino)naphthalene-1,4-dione] | 2.09 | 5.2 | better binding activities than the positive reference compound BT-11
16 | NC(=O)c1sccc1NC(=O)c1ccc(C(=O)N2CCC3(CC2)CCN(C(=O)c2cccc(-c4cn5ccccc5n4)c2)CC3)cc1 [Embodiment L-96, 3-(4-(9-(3-(imidazo[1,2-a]pyridin-2-yl)benzoyl)-3,9-diazaspiro[5.5]undecane-3-carbonyl)benzamido)thiophene-2-carboxamide] | 1.91 | 2.3 | better binding activities than the positive reference compound BT-11
17 | O=C(c1cccc(Nc2ccccc2)n1)N1CC2CN(C(=O)c3cccc(Nc4ccccc4)n3)CC2C1 [Embodiment L-100] | 38.5 | 7.8 | –
18 | O=C(N[C@H]1[C@@H]2CN(C(=O)c3cccc(Nc4ccccc4)n3)C[C@@H]21)c1cccc(Nc2ccccc2)n1 [Embodiment L-101] | 23.3 | 5.5 | –
19 | O=C(N[C@H]1[C@@H]2CN(C(=O)c3sccc3-n3cccc3)C[C@@H]21)c1cccc(-c2cn3ccccc3n2)c1 [Embodiment L-104, N-((1R,5S,6s)-3-(3-(1H-pyrrol-1-yl)thiophene-2-carbonyl)-3-azabicyclo[3.1.0]hexan-6-yl)-3-(imidazo[1,2-a]pyridin-2-yl)benzamide] | 12.5 | 9.7 | –
20 | CCCCOc1ccc(C(=O)NC2CCN(C(=O)c3cccc(-c4cn5ccccc5n4)c3)CC2)cc1 [Embodiment L-107, 4-Butoxy-N-(1-(3-(imidazo[1,2-a]pyridin-2-yl)benzoyl)piperidin-4-yl)benzamide] | 6.19 | 4.5 | –
21 | O=C(c1cnc2ccccc2c1)N1CCN(C(=O)c2cccc(-c3nc4ccccc4[nH]3)n2)CC1 [Embodiment L-108, (4-(6-(1H-benzo[d]imidazol-2-yl)picolinoyl)piperazin-1-yl)(quinolin-3-yl)methanone] | 48.4 | 13.7 | –
22 | O=C(c1cccc(-c2nc3ccccc3[nH]2)n1)N1CCN(C(=O)c2n[nH]c3ccccc23)CC1 [Embodiment L-110, (4-(6-(1H-benzo[d]imidazol-2-yl)picolinoyl)piperazin-1-yl)(1H-indazol-3-yl)methanone] | 26.2 | 15 | –
23 | NC(=O)c1sccc1NC(=O)c1ccc(C(=O)N2CCN(C(=O)c3cccc(-c4nc5ccccc5[nH]4)n3)CC2)cc1 [Embodiment L-115, 3-(4-(4-(6-(1H-benzo[d]imidazol-2-yl)picolinoyl)piperazine-1-carbonyl)benzamido)thiophene-2-carboxamide] | 17.7 | 20.8 | –
24 | Cc1ccc(C(=O)N2CCN(C(=O)c3cccc(-c4nc5ccccc5[nH]4)n3)CC2)cc1NC1=CC(=O)c2ccccc2C1=O [Embodiment L-116, 2-((5-(4-(6-(1H-benzo[d]imidazol-2-yl)picolinoyl)piperazine-1-carbonyl)-2-methylphenyl)amino)naphthalene-1,4-dione] | 14.8 | 32.5 | –
25 | Cc1cn(-c2cccc(C(=O)N3CCN(C(=O)c4cccc(-c5nc6ccccc6[nH]5)n4)CC3)c2)cn1 [Embodiment L-117, (4-(6-(1H-benzo[d]imidazol-2-yl)picolinoyl)piperazin-1-yl)(3-(4-methyl-1H-imidazol-1-yl)phenyl)methanone] | 27 | 3.2 | –
26 | O=C(Nc1cccc(-c2cn3ccccc3n2)c1)Nc1cccc(-c2cn3ccccc3n2)c1 [Embodiment L-119, 1,3-Bis(3-(imidazo[1,2-a]pyridin-2-yl)phenyl)urea] | 6.78 | 10.8 | –
27 | O=C(c1cccc(-c2nc3ccccc3[nH]2)n1)N1CC2CN(C(=O)c3n[nH]c4ccccc34)CC2C1 [Embodiment L-120, (5-(6-(1Hbenzo[d]imidazol-2-yl)picolinoyl)hexahydropyrrolo[3,4-c]pyrrol-2(1H)-yl)(1H-indazol-3-yl)methanone] | 22.1 | 8.9 | –
